The subject of data set [1] is DU145-derived human prostate carcinoma xenografts. Put plainly: Targeted treatment of nude mice bearing DU145 human prostate carcinoma xenografts. Type of data set: in vivo. To be noted: 300 μg/week per mouse i.v.; controls vehicle and equimolar unconjugated mixtures; P<0.001. The protocol:
Establishment of mice bearing human tumor xenografts. Male athymic nu/nu (nude) mice were obtained commercially from Harlan-Sprague-Dawley (Indianapolis, Ind.). Human prostate cancer xenografts were established by injection of DU 145 cells (10^6 cells in a 200 μl DMEM) in the subcutaneous tissue of 2 months old male nude mice.
Targeted treatment ofnude mice bearing human prostate carcinoma xenografts. DU145-derived tumor xenografts were established in male nude mice as described above. GRP78-targeting peptides used for therapy were coupled to the pro-apoptotic motif D(KLAKLAK)2 ([…]) and controls were treated with an equimolar concentration of the GRP78-targeting peptides and the pro-apoptotic motif. Mice were divided into groups of seven animals and treatment started when mean tumor volume for each group was around 200 mm^3. Two-dimensional measurements of tumors were made by caliper on anesthetized mice, and were used to calculate tumor volume. […]
Statistical analysis. Experiments are expressed as mean±standard errors of the means (SEM) of triplicate plates and analyzed by using the two-tailed Student's t test (t test). Tumor volumes were calculated individually for each mouse throughout the study and results are also expressed as mean±SEM for all the groups.
(In general: A xenograft is tissue or cells of one species grown in another, often human tumour cells in immunodeficient mice.)

The test system of data set [2] is DU145 cells. The experiment in a line: Cell apoptosis assay (Annexin-V staining), DU145. Type of data set: cell-based, human. To be noted: DU145, 30 μM, 6 hours. From the text:
Cell apoptosis assays. Peptides were synthesized to our specifications at greater than 95% purity (Genemed Synthesis Inc., San Francisco, Calif.). Apoptosis was induced with a pro-apoptotic motif D(KLAKLAK)2 that disrupts mitochondrial membranes and is inert to eukaryotic plasma membranes. An equimolar concentration of the targeted [(WIFPWIQL (SEQ ID NO:6)-GG-D(KLAKLAK)2 (SEQ ID NO:11) and WDLAWMFRLPVG (SEQ ID NO:7)-GG-D(KLAKLAK)2) (SEQ ID NO:11)] and untargeted [(WIFPWIQL (SEQ ID NO:6)-+(KLAKLAK)2 (SEQ ID NO:11) and WDLAWMFRLPVG (SEQ ID NO:7)-+(KLAKLAK)2 (SEQ ID NO:11)] peptides was used. Human prostate cancer-derived DU 145 cells were grown in tissue chamber slides (Lab-Tek II Chamber Slide System; Nalge Nunc International Corp., Naperville, Ill.). Cells were washed with PBS and incubated with 30 μM (in 300 μl DMEM supplemented with 10% FBS, penicillin and streptomycin) of the targeted and untargeted peptides for 6 hours. Pure DMEM was used as an internal negative control. Apoptosis was detected with the Annexin-V-FLUOS Staining kit (Roche, Manheim, Germany) according to the manufacturer's instructions.

Data set [3] concerns LNCaP cells. The experiment in a line: Cell apoptosis assay (Annexin-V staining), LnCap. Type of data set: cell-based, human. Particulars: LnCap (data not shown).
In data set [4] the target is T1, recombinant GRP78 (Mesocricetus auratus, UniProt P07823).
T1 construct: purchased Stressgen, Victoria, Canada
T1 sequence (P07823 19-654): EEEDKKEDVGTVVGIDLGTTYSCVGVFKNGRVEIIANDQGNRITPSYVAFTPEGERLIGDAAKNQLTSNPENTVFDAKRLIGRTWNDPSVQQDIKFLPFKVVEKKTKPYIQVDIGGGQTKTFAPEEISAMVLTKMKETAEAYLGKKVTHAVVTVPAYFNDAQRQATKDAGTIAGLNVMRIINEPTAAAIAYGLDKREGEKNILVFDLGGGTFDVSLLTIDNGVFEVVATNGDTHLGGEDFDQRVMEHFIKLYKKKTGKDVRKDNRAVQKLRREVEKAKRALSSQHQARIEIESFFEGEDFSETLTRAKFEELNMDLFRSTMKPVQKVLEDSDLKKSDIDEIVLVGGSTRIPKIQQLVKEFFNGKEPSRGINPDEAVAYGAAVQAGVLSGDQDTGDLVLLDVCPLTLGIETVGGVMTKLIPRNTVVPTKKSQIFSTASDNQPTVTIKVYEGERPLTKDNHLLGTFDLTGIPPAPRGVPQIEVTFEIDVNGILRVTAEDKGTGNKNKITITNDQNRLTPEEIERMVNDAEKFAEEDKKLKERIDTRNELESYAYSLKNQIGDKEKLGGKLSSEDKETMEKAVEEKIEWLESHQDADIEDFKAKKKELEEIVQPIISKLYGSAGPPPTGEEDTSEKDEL
Put plainly: In vitro phage binding assay on immobilized GRP78. Particulars: increasing concentrations of synthetic peptide against the corresponding phage. How it is done: In vitro phage binding assays. GRP78, HSP70, HSP90 (all from Stressgen, Victoria, Canada) and bovine serum albumin (BSA) were immobilized on microtiter wells of 96-well plates overnight at 4° C. Wells were washed twice with phosphate-buffered saline (PBS), blocked with PBS containing 3% BSA for 1 hour at room temperature (RT), and incubated with 10^9 transducing units (TU) of WIFPWIQL (SEQ ID NO:6)-phage, WDLAWMFRLPVG (SEQ ID NO:7)-phage, or insertless control phage (Fd-tet) in 50 μl of PBS containing 1.5% BSA. After 2 hours at RT, wells were washed with PBS, and bound phage were recovered by infection with host bacteria (log-phase Escherichia coli K91 kan; OD600≈2). Aliquots of the bacterial culture were plated onto Luria-Bertani broth (LB) agar plates supplemented with 40 μg/ml tetracycline and 100 μg/ml kanamycin. Plates were incubated overnight at 37° C., and phage TU were counted in triplicate plates. Increasing concentrations of synthetic peptides WIFPWIQL (SEQ ID NO:6), WDLAWMFRLPVG (SEQ ID NO:7)-, and an unrelated control peptide CARAC (SEQ ID NO:9) (Genemed Synthesis Inc., San Francisco, Calif.) were used to evaluate competitive inhibition of phage binding. All peptides were solubilized in a standard stock solution of 10% dimethylsulfoxide (DMSO) and diluted to working concentrations for the assays.

Data set [5] concerns MDA-PCa-2b cells. The experiment in a line: Induction of apoptosis, WST-1 cell viability assay, MDA-PCa-2b. Type of data set: cell-based, human. To be noted: 10-100 μM, 24-72 hours. The protocol: (§1) Induction and Quantification of Apoptosis with […] (SEQ ID NO:1)-GG-D(KLAKLAK)2 (SEQ ID NO:11) Synthetic Peptide. Soluble […] (SEQ ID NO:1)-GG-D(KLAKLAK)2 (SEQ ID NO:11), […] […] The unrelated control peptide […] (SEQ ID NO:5)-GG-D(KLAKLAK)2 (SEQ ID NO:11) was synthesized by Genemed Synthesis, Inc. (South San Francisco, Calif.). LNCaP, MDA-PCa-2b cells (each at 3×10^4 per well), and EF43fgf-4 cells (7) at 2×10^4 per well were seeded in triplicates and incubated in 96-well plates (Becton Dickinson, Franklin Lakes, N.J.) for 24-72 hours at 37° C., with serially increasing concentrations (10-100 μM) of […] (SEQ ID NO:1))-GG-D(KLAKLAK)2 (SEQ ID NO:11) peptide, […] (SEQ ID NO:1)-peptide alone, D(KLAKLAK)2 (SEQ ID NO:11) peptide alone, or an equimolar mixture of the unconjugated peptides […] […] LNCaP cells were also exposed in parallel to increasing concentrations (20-100 μM) of […] (SEQ ID NO:1)-GG-D(KLAKLAK)2 (SEQ ID NO:11) and unrelated control peptides […] (SEQ ID NO:4)-GG-D(KLAKLAK)2 (SEQ ID NO:11) or […] (SEQ ID NO:5)-GG-D(KLAKLAK)2 (SEQ ID NO:11), under the same conditions. […] (SEQ ID NO:1)-GG-D(LAKLAK)2 (SEQ ID NO:11) peptide for 3 hours. Response was evaluated by a cell viability assay (WST-1; Roche, Mannheim, Germany).
For orientation: Tetrazolium assays rely on reduction of a dye to a coloured formazan, in cell work by metabolically active cells.

In data set [6] the test system is LNCaP cells. Put plainly: Induction of apoptosis, WST-1 cell viability assay, LNCaP. Type of data set: cell-based, human. To be noted: 10-100 μM, 24-72 hours. The protocol: as §1
Data set [7] has as its system diet-induced obese C57BL/6 mice. Put plainly: Fat resorption and metabolic analysis in diet-induced obese mice. Particulars: 4 weeks of treatment.
Text: Apoptosis was detected by using standard TUNEL immunohistochemistry.
Fat resorption and metabolic analysis. High-calorie diet for obesity induction (TD97366: 25.4% fat, 21.79% protein, 38.41% carbohydrate) was purchased from Harlan Teklad. […] Stocks of [sequence] (SEQ ID NO:4)-GG-D(KLAKLAK)2 (SEQ ID NO:11), [sequence] (SEQ ID NO:10)-GG-D(KLAKLAK)2 (SEQ ID NO:11), D(KLAKLAK)2, CARAC (SEQ ID NO:9)-GG-D(KLAKLAK)2 (SEQ ID NO:11), and [sequence] (SEQ ID NO:4) chemically synthesized, cyclized, and HPLC-purified to 99% purity (AnaSpec) were prepared by dissolving lyophilized peptides in DMSO to a concentration of 65 mM. […] Mouse weight, body temperature, and food and water consumption were monitored weekly. Tissue lipids were measured as described. […] Oxygen consumption and heat generation of fasting mice were measured for 24 h by indirect calorimetry with OXYMAX (Columbus Instruments, Columbus, Ohio). To quantify spontaneous activity, 8 mice (2 mice per cage) were placed in automated photocell activity cages (AccuScan Instruments, Columbus, Ohio). […] Horizontal locomotor activity was computer-monitored as the number of infrared beam breaks, which were detected for the period of 1 h and recorded every hour for the duration of the test (14 h) by using a Versamax Analyser. […]
The subject of data set [8] is wild-type mice obese due to old age. Put plainly: Treatment of age-related obesity in regular diet-fed wild-type mice. The format is in vivo, mouse. How it is done: Fat resorption and metabolic analysis. […] Tissue lipids were measured as described.
The subject of data set [9] is white fat vasculature. The experiment in a line: In vivo homing of fitc-peptides in wild-type mice. Also noted: species or system mouse.

Where a SMILES comes first, the peptide text is derived from it. Bridges are numbered along the chain shown (N, C = ends). Primed or numbered codes have the meaning given here. Where no end group is shown, it is not given here. [ ]: non-standard residue; d: D form. FITC′ = not defined here

Turning to “WDLAWMFRLPVG (SEQ ID NO:7)-GG-D(KLAKLAK)2 (SEQ ID NO:11): GRP78-targeted pro-apoptotic peptide (WDLAWMFRLPVGGG[dK][dL][dA][dK][dL][dA][dK][dK][dL][dA][dK][dL][dA][dK])”, the “mean tumor volume relative to the controls” value in data set [1] is reported as “significantly smaller”. The “toxicity / apoptosis (Annexin-V staining)” value in [2] and in [3] was “induced apoptosis” throughout.
“WIFPWIQL (SEQ ID NO:6)-GG-D(KLAKLAK)2 (SEQ ID NO:11): GRP78-targeted pro-apoptotic peptide (WIFPWIQLGG[dK][dL][dA][dK][dL][dA][dK][dK][dL][dA][dK][dL][dA][dK])”: in [1], the “mean tumor volume relative to the controls” value is “significantly smaller”. Further, the “toxicity / apoptosis (Annexin-V staining)” value in data set [2] and in [3] was “induced apoptosis” throughout.
In the case of “WIFPWIQL (SEQ ID NO:6): synthetic GRP78-binding peptide”, the “inhibition of phage binding to GRP78 by synthetic peptide” value in data set [4] is on record as “inhibit binding of the corresponding phage in a dose-dependent manner”.
For “CGRRAGGSC (SEQ ID NO:1): soluble IL-11-mimic peptide alone, used as control”, the “programmed cell death / toxic effect (WST-1 cell viability)” value in data set [5] and in data set [6] was “no measurable toxic effects” in each case.
Regarding `CC(C)C[C@@H](NC(=O)[C@@H](CCCCN)NC(=O)CNC(=O)CNC(=O)[C@@H]1CSSC[C@H](N)C(=O)N[C@@H](CCCCN)C(=O)NCC(=O)NCC(=O)N[C@@H](CCCNC(=N)N)C(=O)N[C@@H](C)C(=O)N[C@@H](CCCCN)C(=O)N[C@@H](CC(=O)O)C(=O)N1)C(=O)N[C@H](C)C(=O)N[C@H](CCCCN)C(=O)N[C@H](CC(C)C)C(=O)N[C@H](C)C(=O)N[C@H](CCCCN)C(=O)N[C@H](CCCCN)C(=O)N[C@H](CC(C)C)C(=O)N[C@H](C)C(=O)N[C@H](CCCCN)C(=O)N[C@H](CC(C)C)C(=O)N[C@H](C)C(=O)N[C@H](CCCCN)C(=O)O` (H-CKGGRAKDCGG[dK][dL][dA][dK][dL][dA][dK][dK][dL][dA][dK][dL][dA][dK]-OH; disulfide 1-9), the “apoptosis and appearance of control organs such as liver” value in [7] is given as “apoptosis was not detected in the control tissues”. Further, the toxicity entry in [8] is “without detectable toxicity”.
On to “CKGGRAKDC (SEQ ID NO:4)-fitc: soluble CKGGRAKDC peptide linked to fluorescein (fitc) at its C-terminus (CKGGRAKDC-{FITC′}; also: cyclized, bridge type not given here)”, for which the “presence in isolated ex-vivo blood vessels from white fat tissue” value in [9] (mouse, in vivo) was “presence”. For the same compound, the “detection in white fat vasculature” value in data set [9] (wild-type C57BL/6 mice, i.v., 5 min prior to tissue collection) is “specifically localized to and was internalized by blood vessels of subcutaneous and peritoneal white fat”. Besides, the “homing to blood vessels of brown fat, liver and other control organs” value in [9] (wild-type mice, i.v.) is “no CKGGRAKDC (SEQ ID NO:4)-fitc homing was observed”.
Take “WDLAWMFRLPVG (SEQ ID NO:7): synthetic GRP78-binding peptide”: the “inhibition of phage binding to GRP78 by synthetic peptide” value in data set [4] was “inhibit binding of the corresponding phage in a dose-dependent manner”.
On to “D(KLAKLAK)2 (SEQ ID NO:11): amphipathic, α-helix-forming anti-microbial pro-apoptotic peptide KLAKLAKKLAKLAK (D-amino acids) [reference compound]”, for which the “programmed cell death / toxic effect (WST-1 cell viability)” value in data set [5] and in data set [6] was “no measurable toxic effects” throughout.

The values are drawn from patent publication US20050191294A1, “Compositions and methods of use of targeting peptides for diagnosis and therapy” (Board of Regents, The University of Texas System, priority 2003, published 2005).
